This is an account of results in US9120812B2, “Pyrimidooxazocine derivatives as mTOR-inhibitors” (SANOFI, priority 2012, dated 2015).

Structures are written as SMILES. pIC50: −log10 of the molar value.

In test [1] the target is PI3Kα (p110α/p85α) (Homo sapiens (Human), UniProt P42336). As to the kind of experiment: PI3Kα enzymatic test by measuring the consumption of ATP. It is filed as biochemical. The essentials: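 ATP consumption read out by KinaseGlo luminescence after a 90 min reaction of 1.7 μg/ml PI3Kα (p110α/p85α) with 2 μM ATP and 50 μM PIP2, buffered at pH 7.5 (Tris, 10 mM MgCl2, 1 mM EGTA, 0.03% Chaps, 1 mM DTT). Threefold dilution series over ≥10 000-fold range yield IC50.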
Sequence of PI3Kα (p110α/p85α) (P42336 whole entry): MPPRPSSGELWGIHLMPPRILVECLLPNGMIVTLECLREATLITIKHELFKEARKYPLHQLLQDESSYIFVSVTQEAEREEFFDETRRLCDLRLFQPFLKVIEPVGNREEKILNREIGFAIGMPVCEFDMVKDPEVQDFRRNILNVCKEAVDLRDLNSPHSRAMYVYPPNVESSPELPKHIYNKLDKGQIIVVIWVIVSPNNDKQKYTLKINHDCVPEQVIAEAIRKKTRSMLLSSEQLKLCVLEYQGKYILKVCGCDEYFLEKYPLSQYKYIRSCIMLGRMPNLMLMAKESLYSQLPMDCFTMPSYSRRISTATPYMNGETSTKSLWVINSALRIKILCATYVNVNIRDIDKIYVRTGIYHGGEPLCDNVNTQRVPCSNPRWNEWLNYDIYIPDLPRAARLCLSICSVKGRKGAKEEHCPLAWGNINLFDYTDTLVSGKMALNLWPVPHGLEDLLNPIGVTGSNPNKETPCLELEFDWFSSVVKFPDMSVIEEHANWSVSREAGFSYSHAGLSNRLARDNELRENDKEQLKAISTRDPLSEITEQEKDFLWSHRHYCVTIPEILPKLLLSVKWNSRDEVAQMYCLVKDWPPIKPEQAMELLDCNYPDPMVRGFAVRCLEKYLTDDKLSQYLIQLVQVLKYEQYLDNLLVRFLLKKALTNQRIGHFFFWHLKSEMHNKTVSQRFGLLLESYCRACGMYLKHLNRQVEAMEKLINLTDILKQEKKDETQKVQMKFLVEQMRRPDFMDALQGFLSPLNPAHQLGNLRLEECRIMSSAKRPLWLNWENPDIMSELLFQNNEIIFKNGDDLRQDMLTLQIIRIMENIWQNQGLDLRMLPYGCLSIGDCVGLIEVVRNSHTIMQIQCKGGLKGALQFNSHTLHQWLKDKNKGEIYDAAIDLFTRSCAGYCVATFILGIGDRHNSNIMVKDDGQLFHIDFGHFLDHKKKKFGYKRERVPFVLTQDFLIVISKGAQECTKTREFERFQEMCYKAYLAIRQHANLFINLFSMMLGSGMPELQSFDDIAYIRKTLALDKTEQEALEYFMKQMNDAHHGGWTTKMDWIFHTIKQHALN
Sequence of PI3Kα (p110α/p85α) (P27986 whole entry partner): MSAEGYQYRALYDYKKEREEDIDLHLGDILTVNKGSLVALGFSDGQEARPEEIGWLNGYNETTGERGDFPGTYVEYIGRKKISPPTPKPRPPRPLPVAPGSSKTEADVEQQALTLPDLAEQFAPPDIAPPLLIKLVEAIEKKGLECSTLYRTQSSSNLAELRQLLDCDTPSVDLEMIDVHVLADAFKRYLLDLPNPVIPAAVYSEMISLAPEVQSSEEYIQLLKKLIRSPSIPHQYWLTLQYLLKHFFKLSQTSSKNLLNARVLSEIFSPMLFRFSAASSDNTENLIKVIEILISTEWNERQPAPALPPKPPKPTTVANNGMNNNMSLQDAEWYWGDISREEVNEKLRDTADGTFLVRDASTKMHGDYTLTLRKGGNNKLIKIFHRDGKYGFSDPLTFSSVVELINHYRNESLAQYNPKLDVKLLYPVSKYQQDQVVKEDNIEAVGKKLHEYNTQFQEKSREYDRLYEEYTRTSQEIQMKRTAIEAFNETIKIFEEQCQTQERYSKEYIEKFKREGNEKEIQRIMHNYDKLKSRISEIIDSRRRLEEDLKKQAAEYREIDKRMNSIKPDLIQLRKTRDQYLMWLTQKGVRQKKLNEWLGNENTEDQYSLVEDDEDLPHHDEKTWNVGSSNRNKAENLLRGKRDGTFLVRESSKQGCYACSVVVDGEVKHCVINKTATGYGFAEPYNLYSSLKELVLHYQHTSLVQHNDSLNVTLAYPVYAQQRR

The target of test [2] is mTOR (human recombinant aa mTOR 1360-2549) (Homo sapiens (Human), UniProt P42345). Nature of the test: mTOR enzymatic test by TR-FRET (phosphorylation of GFP-4EBP1). It is filed as biochemical. The essentials:
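After a 30 min room-temperature kinase reaction, EDTA (10 mM final) and Tb-labelled phospho-Thr46 antibody (2 nM final) were added and incubated 60 min. Energy transfer from Tb to phosphorylated GFP-4EBP1 was read at 340 nm excitation, emissions 490/520 nm. Values derive from the 520/490 fluorescence ratio.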
On the technique in general: Time-resolved FRET reads energy transfer from a long-lived donor to a nearby acceptor.

The subject of test [3] is U87MG tumour cells. Nature of the test: Test of in vitro proliferation of U87MG tumour cells. It is filed as cell-based. Particulars: Homo sapiens, U-87 MG, 72 h, U87MG cells, 72 hours; read-out: U87 Cell Proliferation IC50. The procedure:
Model 4: Test of in vitro Proliferation of U87MG Tumour Cells.
The cell growth is determined with the reagent CellTiter 96 AQueous One Solution Cell Proliferation Assay from Promega (Cat. No. G3581).

For test [4], the system named is Akt-pS473 in U87MG cells. The following applies: Homo sapiens, U-87 MG, read-out: U87 Akt-pS473 % Inhibition or IC50, nM (IC50), U87MG cells.

Sequence of mTOR (human recombinant aa mTOR 1360-2549) (P42345 1360-2549): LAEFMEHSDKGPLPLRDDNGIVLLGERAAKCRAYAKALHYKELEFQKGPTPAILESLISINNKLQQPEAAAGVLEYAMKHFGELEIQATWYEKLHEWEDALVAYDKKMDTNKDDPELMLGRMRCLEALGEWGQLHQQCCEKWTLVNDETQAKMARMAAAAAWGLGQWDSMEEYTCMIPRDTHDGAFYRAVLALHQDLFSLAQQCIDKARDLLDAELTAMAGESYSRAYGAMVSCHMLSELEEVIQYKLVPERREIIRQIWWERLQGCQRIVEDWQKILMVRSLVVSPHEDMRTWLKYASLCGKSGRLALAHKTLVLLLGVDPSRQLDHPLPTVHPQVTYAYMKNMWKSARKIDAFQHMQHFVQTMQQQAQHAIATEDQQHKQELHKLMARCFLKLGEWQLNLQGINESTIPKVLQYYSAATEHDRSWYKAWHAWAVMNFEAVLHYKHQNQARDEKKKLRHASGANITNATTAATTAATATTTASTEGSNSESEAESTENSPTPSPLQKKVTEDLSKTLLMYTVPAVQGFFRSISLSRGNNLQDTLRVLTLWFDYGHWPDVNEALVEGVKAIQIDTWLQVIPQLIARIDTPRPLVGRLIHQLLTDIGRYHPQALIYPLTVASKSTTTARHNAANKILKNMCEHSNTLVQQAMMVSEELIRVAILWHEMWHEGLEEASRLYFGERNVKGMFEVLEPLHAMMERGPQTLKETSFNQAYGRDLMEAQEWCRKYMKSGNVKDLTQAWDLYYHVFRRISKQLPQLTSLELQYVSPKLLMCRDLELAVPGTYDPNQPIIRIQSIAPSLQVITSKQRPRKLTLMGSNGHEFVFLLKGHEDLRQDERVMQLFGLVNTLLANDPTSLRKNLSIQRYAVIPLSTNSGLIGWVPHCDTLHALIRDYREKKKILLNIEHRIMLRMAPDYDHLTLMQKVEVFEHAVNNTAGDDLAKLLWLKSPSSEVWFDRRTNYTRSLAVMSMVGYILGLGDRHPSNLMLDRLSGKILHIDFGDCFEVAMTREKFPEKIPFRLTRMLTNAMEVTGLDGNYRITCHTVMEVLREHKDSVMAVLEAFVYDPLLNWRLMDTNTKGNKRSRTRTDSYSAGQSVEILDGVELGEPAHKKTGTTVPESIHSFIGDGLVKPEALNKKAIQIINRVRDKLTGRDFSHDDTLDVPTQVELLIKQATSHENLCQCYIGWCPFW

Take `CCN1CC(C)(C)Oc2nc(N3CC4CCC(C3)O4)nc(-c3ccc(NC(=O)Nc4ccc(N5CCCCC5)nc4)c(F)c3)c2C1=O` [Example 31, 1-{4-[6-Ethyl-8,8-dimethyl-2-(8-oxa-3-azabicyclo[3.2.1]oct-3-yl)-5-oxo-5,6,7,8-tetrahydro-9-oxa-1,3,6-triazabenzocyclohepten-4-yl]-2-fluorophenyl}-3-(3,4,5,6-tetrahydro-2H-[1,2′]bipyridinyl-5′-yl)urea]: the “PI3Ka IC50” value in test [1] was more than 10000 nM. Moreover, the pIC50 in test [2] was 7.19; in test [3], 7.46. Also, the half-inhibitory concentration (IC50) (usually the concentration at which inhibition is half-maximal) in test [4] was 17 nM.
On to `CCN1CC(C)(C)Oc2nc(N3CC4CCC(C3)O4)nc(-c3ccc(NC(=O)Nc4ccc(N5CCCC5)nc4)c(F)c3)c2C1=O` [Example 32, 1-{4-[6-Ethyl-8,8-dimethyl-2-(8-oxa-3-azabicyclo[3.2.1]oct-3-yl)-5-oxo-5,6,7,8-tetrahydro-9-oxa-1,3,6-triazabenzocyclohepten-4-yl]-2-fluorophenyl}-3-(6-pyrrolidin-1-ylpyridin-3-yl)urea], for which the “PI3Ka IC50” value in test [1] is listed as more than 10000 nM. Besides, the pIC50 in test [2] is 7.08; in test [3], 6.94. Moreover, the IC50 in test [4] worked out at 21 nM.
As for `CCN1CC(C)(C)Oc2nc(N3CC4CCC(C3)O4)nc(-c3ccc(NC(=O)Nc4ccccn4)cc3)c2C1=O` [Example 33, 1-{4-[6-Ethyl-8,8-dimethyl-2-(8-oxa-3-azabicyclo[3.2.1]oct-3-yl)-5-oxo-5,6,7,8-tetrahydro-9-oxa-1,3,6-triazabenzocyclohepten-4-yl]phenyl}-3-pyridin-2-ylurea], in test [1], the “PI3Ka IC50” value was found to be 9240 nM. Also, the pIC50 was 7.62 in test [2] and 6.65 in test [3]. For the same compound, in test [4], the IC50 amounted to 42 nM.
As to `CCN1CC(C)(C)Oc2nc(N3CC4CCC(C3)O4)nc(-c3ccc(NC(=O)Nc4ccc(C)cn4)cc3)c2C1=O` [Example 34, 1-{4-[6-Ethyl-8,8-dimethyl-2-(8-oxa-3-azabicyclo[3.2.1]oct-3-yl)-5-oxo-5,6,7,8-tetrahydro-9-oxa-1,3,6-triazabenzocyclohepten-4-yl]phenyl}-3-(5-methylpyridin-2-yl)urea], the “PI3Ka IC50” value in test [1] is listed as more than 10000 nM. Further, the figures for the pIC50 in test [2] and in test [3] were 7.37 and 6.49, respectively. In addition, the IC50 in test [4] is 70 nM.
For `CCN1CC(C)(C)Oc2nc(N3CC4CCC(C3)O4)nc(-c3ccc(NC(=O)Nc4cc(OC)ccn4)cc3)c2C1=O` [Example 35, 1-{4-[6-Ethyl-8,8-dimethyl-2-(8-oxa-3-azabicyclo[3.2.1]oct-3-yl)-5-oxo-5,6,7,8-tetrahydro-9-oxa-1,3,6-triazabenzocyclohepten-4-yl]phenyl}-3-(4-methoxypyridin-2-yl)urea], in that order: more than 10000 nM, 7.43, 6.47 and 75 nM.
Regarding `CCN1CC(C)(C)Oc2nc(N3CCOC[C@@H]3C)nc(-c3ccc(NC(=O)Nc4cccc(C)n4)cc3)c2C1=O` [Example 36, 1-{4-[6-Ethyl-8,8-dimethyl-2-((S)-3-methylmorpholin-4-yl)-5-oxo-5,6,7,8-tetrahydro-9-oxa-1,3,6-triazabenzocyclohepten-4-yl]phenyl}-3-(6-methylpyridin-2-yl)urea], the “PI3Ka IC50” value in test [1] is recorded as 4400 nM. The pIC50 in test [2] is 7.26; in test [3] it was 6.16. Also, in test [4], the IC50 amounted to 129 nM.
`CC[C@H]1COCCN1c1nc2c(c(-c3ccc(NC(=O)Nc4ccc(C)nc4)c(F)c3)n1)C(=O)N(CC)CC(C)(C)O2` [Example 37, 1-{4-[6-Ethyl-2-((S)-3-ethylmorpholin-4-yl)-8,8-dimethyl-5-oxo-5,6,7,8-tetrahydro-9-oxa-1,3,6-triazabenzocyclohepten-4-yl]-2-fluorophenyl}-3-(6-methylpyridin-3-yl)urea]: the “PI3Ka IC50” value in test [1] is recorded as 8630 nM. In addition, the pIC50 in test [2] is 6.91; in test [3], 6.06. For the same compound, the 50% inhibitory concentration (IC50) in test [4] turned out to be 54 nM.
